In PubChem BioAssay AID248 (DTP/NCI, 2004):
Values joined by “and” are separate entries in the source; they are usually repeats but may differ in a detail not shown here. Equal values may be shown once. Inconclusive results and toxic doses are left out. No stated cut-off is given here; in the data, active means T/C of 150% or more; inactive means T/C below 125%.

System: L1210 leukemia ip in BDF1 mice, survival T/C
Assay: NCI In Vivo Anticancer Drug Screen. Data for tumor model L1210 Leukemia (intraperitoneal) in B6D2F1 (BDF1) mice
Conditions: endpoint: mean survival time, higher = longer survival
Procedure, shortened: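 Antitumor effect is assessed in tumor-bearing animals. Survival in the compound arm is compared with a vehicle-dosed control arm and expressed as their quotient.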

[1] = dose: 50.0 mg/kg/injection, schedule: Q01DX009 (ip), vehicle: Klucel (hydroxypropylcellulose) (HPC)
[2] = dose: 100.0 mg/kg/injection, schedule: Q01DX001 (ip), vehicle: saline
[3] = dose: 100.0 mg/kg/injection, schedule: Q01DX009 (ip), vehicle: Klucel (hydroxypropylcellulose) (HPC)
[4] = dose: 100.0 mg/kg/injection, schedule: Q04DX002 (ip), vehicle: Klucel (hydroxypropylcellulose) (HPC)
[5] = dose: 100.0 mg/kg/injection, schedule: Q04DX003 (ip), vehicle: Klucel (hydroxypropylcellulose) (HPC)
[6] = dose: 200.0 mg/kg/injection, schedule: Q01DX001 (ip), vehicle: saline
[7] = dose: 200.0 mg/kg/injection, schedule: Q01DX009 (ip), vehicle: Klucel (hydroxypropylcellulose) (HPC)
[8] = dose: 200.0 mg/kg/injection, schedule: Q04DX002 (ip), vehicle: Klucel (hydroxypropylcellulose) (HPC)
[9] = dose: 200.0 mg/kg/injection, schedule: Q04DX003 (ip), vehicle: Klucel (hydroxypropylcellulose) (HPC)
[10] = dose: 400.0 mg/kg/injection, schedule: Q01DX001 (ip), vehicle: saline
[11] = dose: 400.0 mg/kg/injection, schedule: Q01DX009 (ip), vehicle: Klucel (hydroxypropylcellulose) (HPC)
[12] = dose: 400.0 mg/kg/injection, schedule: Q04DX003 (ip), vehicle: Klucel (hydroxypropylcellulose) (HPC)
[13] = dose: 25.0 mg/kg/injection, schedule: Q01DX009 (ip), vehicle: saline
[14] = dose: 50.0 mg/kg/injection, schedule: Q01DX009 (ip), vehicle: saline
[15] = dose: 400.0 mg/kg/injection, schedule: Q04DX002 (ip), vehicle: Klucel (hydroxypropylcellulose) (HPC)
[16] = dose: 100.0 mg/kg/injection, schedule: Q01DX001 (ip), vehicle: carboxymethylcellulose (CMC)
[17] = dose: 100.0 mg/kg/injection, schedule: Q04DX003 (ip), vehicle: saline with Tween-80
[18] = dose: 200.0 mg/kg/injection, schedule: Q01DX001 (ip), vehicle: carboxymethylcellulose (CMC)
[19] = dose: 400.0 mg/kg/injection, schedule: Q01DX001 (ip), vehicle: carboxymethylcellulose (CMC)
[20] = dose: 25.0 mg/kg/injection, schedule: Q01DX009 (ip), vehicle: Klucel (hydroxypropylcellulose) (HPC)
[21] = dose: 25.0 mg/kg/injection, schedule: Q04DX002 (ip), vehicle: Klucel (hydroxypropylcellulose) (HPC)
[22] = dose: 50.0 mg/kg/injection, schedule: Q04DX002 (ip), vehicle: Klucel (hydroxypropylcellulose) (HPC)

Measured: T/C

O=[N+]([O-])c1ccc(C(Cl)S(=O)(=O)c2ccccc2)cc1 (stereo unspecified)
inactive: dose: 50.0 mg/kg/injection, schedule: Q01DX001 (ip), vehicle: saline 100 % of control | [1] 103 % of control | dose: 50.0 mg/kg/injection, schedule: Q04DX003 (ip), vehicle: Klucel (hydroxypropylcellulose) (HPC) 99 % of control | [2] 108 % of control | [3] 92 % of control | [4] 93 % of control and 100 % of control | [5] 111 % of control | dose: 119.0 mg/kg/injection, schedule: Q01DX001 (ip), vehicle: Klucel (hydroxypropylcellulose) (HPC) 105 % of control | dose: 178.0 mg/kg/injection, schedule: Q01DX001 (ip), vehicle: Klucel (hydroxypropylcellulose) (HPC) 100 % of control | [6] 97 % of control | [7] 97 % of control | [8] 100 % of control | [9] 107 % of control | dose: 266.0 mg/kg/injection, schedule: Q01DX001 (ip), vehicle: Klucel (hydroxypropylcellulose) (HPC) 100 % of control | dose: 400.0 mg/kg/injection, schedule: Q01DX001 (ip), vehicle: Klucel (hydroxypropylcellulose) (HPC) 97 % of control | [10] 95 % of control | [11] 92 % of control | [12] 101 % of control | dose: 600.0 mg/kg/injection, schedule: Q01DX001 (ip), vehicle: Klucel (hydroxypropylcellulose) (HPC) 94 % of control | dose: 600.0 mg/kg/injection, schedule: Q04DX002 (ip), vehicle: Klucel (hydroxypropylcellulose) (HPC) 100 % of control

CC1(C)OC(=O)C2CCCCC21 (stereo unspecified)
inactive: [13] 89 % of control | [14] 93 % of control | [2] 97 % of control | [6] 90 % of control

O=C(O)C(Nc1ccc(Nc2ccccc2)cc1)c1ccccc1 (stereo unspecified)
inactive: [4] 100 % of control | [8] 103 % of control | [15] 114 % of control

COC(=O)Nc1nc2ccccc2[nH]1
inactive: dose: 50.0 mg/kg/injection, schedule: Q01DX009 (ip), vehicle: saline with Tween-80 97 % of control | [16] 94 % of control | dose: 100.0 mg/kg/injection, schedule: Q01DX009 (ip), vehicle: saline with Tween-80 101 % of control | [17] 94 % of control | [18] 97 % of control | dose: 200.0 mg/kg/injection, schedule: Q01DX009 (ip), vehicle: saline with Tween-80 97 % of control | dose: 200.0 mg/kg/injection, schedule: Q04DX003 (ip), vehicle: saline with Tween-80 103 % of control | [19] 100 % of control | dose: 400.0 mg/kg/injection, schedule: Q01DX009 (ip), vehicle: saline with Tween-80 116 % of control | dose: 400.0 mg/kg/injection, schedule: Q04DX003 (ip), vehicle: saline with Tween-80 105 % of control

C=CCCCCCCCCC(=O)NC/C(Br)=C/Br
inactive: dose: 75.0 mg/kg/injection, schedule: Q01DX009 (ip), vehicle: Klucel (hydroxypropylcellulose) (HPC) 103 % of control | dose: 150.0 mg/kg/injection, schedule: Q01DX009 (ip), vehicle: Klucel (hydroxypropylcellulose) (HPC) 108 % of control | dose: 300.0 mg/kg/injection, schedule: Q01DX009 (ip), vehicle: Klucel (hydroxypropylcellulose) (HPC) 93 % of control

NCC(O)(c1ccccc1)c1ccccc1
inactive: dose: 12.5 mg/kg/injection, schedule: Q01DX009 (ip), vehicle: Klucel (hydroxypropylcellulose) (HPC) 101 % of control | [20] 95 % of control | [1] 89 % of control | dose: 75.0 mg/kg/injection, schedule: Q01DX001 (ip), vehicle: other 100 % of control

COc1ccc(O)c(/C=N\Nc2ccccc2)c1
inactive: [3] 89 % of control | [5] 96 % of control | [7] 91 % of control | [9] 94 % of control | [11] 86 % of control | [12] 92 % of control

CC(O)(C(F)(F)F)C(C)(O)C(F)(F)F (stereo unspecified)
inactive: dose: 100.0 mg/kg/injection, schedule: Q04DX002 (ip), vehicle: saline with Tween-80 86 % of control | dose: 200.0 mg/kg/injection, schedule: Q04DX002 (ip), vehicle: saline with Tween-80 91 % of control

CC(N)COCc1ccccc1 (stereo unspecified)
inactive: [13] 97 % of control | dose: 25.0 mg/kg/injection, schedule: Q04DX003 (ip), vehicle: saline with Tween-80 97 % of control | [14] 97 % of control | dose: 50.0 mg/kg/injection, schedule: Q04DX003 (ip), vehicle: saline with Tween-80 119 % of control | [17] 97 % of control and 88 % of control

O=c1[nH]cc(COCC(F)(F)C(F)F)c(=O)[nH]1
inactive: dose: 50.0 mg/kg/injection, schedule: Q01DX005 (ip), vehicle: other 101 % of control | dose: 100.0 mg/kg/injection, schedule: Q01DX005 (ip), vehicle: other 104 % of control | dose: 200.0 mg/kg/injection, schedule: Q01DX005 (ip), vehicle: other 95 % of control | dose: 400.0 mg/kg/injection, schedule: Q01DX005 (ip), vehicle: other 95 % of control

Cc1cccc(C[Si](C)C)c1
inactive: [2] 95 % of control and 104 % of control | [6] 124 % of control | [10] 93 % of control and 98 % of control

CCCCCCCC(O)CCCCC (stereo unspecified)
inactive: [3] 104 % of control | [5] 93 % of control | [7] 98 % of control | [9] 104 % of control | [11] 102 % of control | [12] 89 % of control

[O-][N+](=Nc1ccc(Br)cc1)c1ccc(Br)cc1
inactive: [4] 95 % of control | [8] 100 % of control | [15] 89 % of control

CC(=O)OCC1OC(n2ccc3c(=O)[nH]cnc32)C(OC(C)=O)C1OC(C)=O (stereo unspecified)
inactive: dose: 25.0 mg/kg/injection, schedule: Q01DX015 (ip), vehicle: carboxymethylcellulose (CMC) 121 % of control | dose: 50.0 mg/kg/injection, schedule: Q01DX001 (ip), vehicle: carboxymethylcellulose (CMC) 94 % of control | dose: 50.0 mg/kg/injection, schedule: Q01DX015 (ip), vehicle: carboxymethylcellulose (CMC) 112 % of control | [16] 96 % of control | [18] 100 % of control | [19] 102 % of control

O=C(CCl)N(c1ccccc1)c1ccccc1
inactive: [21] 101 % of control and 107 % of control | [22] 103 % of control | [4] 95 % of control and 92 % of control

CSC(=NCc1ccccc1)NC1CCCCC1
inactive: dose: 12.5 mg/kg/injection, schedule: Q04DX002 (ip), vehicle: Klucel (hydroxypropylcellulose) (HPC) 100 % of control | [21] 107 % of control | [22] 107 % of control

CC(=O)Nc1ccc2c(c1)C(=O)c1ccccc1-2
inactive: dose: 100.0 mg/kg/injection, schedule: Q04DX003 (ip), vehicle: saline 96 % of control | dose: 200.0 mg/kg/injection, schedule: Q04DX003 (ip), vehicle: saline 100 % of control | dose: 400.0 mg/kg/injection, schedule: Q04DX003 (ip), vehicle: saline 94 % of control

CCCc1c(C)[nH]c2ccccc12
inactive: [3] 104 % of control | [5] 105 % of control | [7] 92 % of control | [9] 104 % of control | [11] 95 % of control | [12] 105 % of control

CC(=O)Nc1ccc(OC(=O)c2cccc([N+](=O)[O-])c2)cc1
inactive: [2] 107 % of control | [6] 101 % of control | [10] 104 % of control

[N-]=[N+]=C1C(=O)NN=C1c1ccccc1
inactive: dose: 20.0 mg/kg/injection, schedule: Q04DX003 (ip), vehicle: Klucel (hydroxypropylcellulose) (HPC) 92 % of control | [20] 98 % of control | dose: 40.0 mg/kg/injection, schedule: Q04DX003 (ip), vehicle: Klucel (hydroxypropylcellulose) (HPC) 101 % of control | [1] 96 % of control and 108 % of control | dose: 80.0 mg/kg/injection, schedule: Q04DX003 (ip), vehicle: Klucel (hydroxypropylcellulose) (HPC) 97 % of control | [3] 101 % of control and 102 % of control | [5] 98 % of control and 101 % of control and 106 % of control | [9] 98 % of control | [12] 110 % of control
